Measurements from patent publication US20230265151A1, “GIP/GLP1 CO-AGONIST COMPOUNDS” (priority 2020, published 2023).
Like-named read-outs stand apart in the source and are kept apart here.

Assays:
Type in all cases: cell-based
hGCGR = molecular target: T1, hGCGR (Homo sapiens, UniProt P47871); assay: Functional cAMP formation (HTRF) in HEK-293 clonal cells expressing hGCGR, 0.1% bovine casein, without or with 1.0% human serum albumin
T1 construct: expressed in transfected cells
Outline: (§1)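 Cells were stimulated with peptide for 30 min at 37° C, then intracellular cAMP was measured by competitive HTRF (665/620 nm ratio) and converted to nM using a cAMP standard curve. Relative EC50 and Emax came from four-parameter logistic fits of percent maximal response against peptide concentration.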

hGIPR = molecular target: T2, hGIPR (Homo sapiens, UniProt P48546); assay: Functional cAMP formation (HTRF) in HEK-293 clonal cells expressing hGIPR, 0.1% bovine casein, without or with 1.0% human serum albumin; settings: for EC50: geometric mean
T2 construct: expressed in transfected cells
T2 sequence (P48546 22-466): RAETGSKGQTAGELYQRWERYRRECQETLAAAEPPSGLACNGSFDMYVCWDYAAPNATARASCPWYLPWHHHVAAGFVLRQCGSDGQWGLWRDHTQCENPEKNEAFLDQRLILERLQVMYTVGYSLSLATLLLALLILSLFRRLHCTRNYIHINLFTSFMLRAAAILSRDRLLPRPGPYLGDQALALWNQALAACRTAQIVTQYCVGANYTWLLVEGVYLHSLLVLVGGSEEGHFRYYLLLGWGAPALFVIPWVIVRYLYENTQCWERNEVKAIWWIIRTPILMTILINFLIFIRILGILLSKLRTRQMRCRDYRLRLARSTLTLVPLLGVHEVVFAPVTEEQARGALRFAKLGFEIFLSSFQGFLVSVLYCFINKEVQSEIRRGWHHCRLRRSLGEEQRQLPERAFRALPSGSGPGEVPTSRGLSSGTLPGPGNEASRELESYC
Outline: as §1

hGLP-1R = hGLP-1R (Homo sapiens, UniProt P43220); assay: Functional cAMP formation (HTRF) in HEK-293 clonal cells expressing hGLP-1R, 0.1% bovine casein, without or with 1.0% human serum albumin; parameters: expressed in transfected cells; settings: for EC50: geometric mean
Sequence of hGLP-1R (P43220 24-463): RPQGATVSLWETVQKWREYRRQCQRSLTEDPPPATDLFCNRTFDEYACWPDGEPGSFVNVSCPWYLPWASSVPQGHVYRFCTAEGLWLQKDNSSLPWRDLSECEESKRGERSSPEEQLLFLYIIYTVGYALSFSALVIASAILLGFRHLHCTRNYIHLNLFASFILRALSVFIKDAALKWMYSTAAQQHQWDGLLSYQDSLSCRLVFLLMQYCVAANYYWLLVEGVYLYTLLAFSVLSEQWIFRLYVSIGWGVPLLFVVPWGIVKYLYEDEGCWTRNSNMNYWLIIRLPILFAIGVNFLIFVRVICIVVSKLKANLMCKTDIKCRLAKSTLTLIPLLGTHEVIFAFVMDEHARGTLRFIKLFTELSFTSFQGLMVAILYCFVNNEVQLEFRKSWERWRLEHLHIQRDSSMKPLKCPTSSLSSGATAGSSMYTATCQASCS
Outline: as §1

[1] = hGCGR EC50, nM (SEM, n), cAMP, incubated at 37° C., 0.1% bovine casein (no human serum albumin), geometric mean
[2] = HEK293, read-out: hGIPR Emax, % ± SEM, percent of maximal response to GIP(1-42)NH2, 37° C., 0.1% bovine casein, arithmetic mean

T1 sequence (P47871 26-477): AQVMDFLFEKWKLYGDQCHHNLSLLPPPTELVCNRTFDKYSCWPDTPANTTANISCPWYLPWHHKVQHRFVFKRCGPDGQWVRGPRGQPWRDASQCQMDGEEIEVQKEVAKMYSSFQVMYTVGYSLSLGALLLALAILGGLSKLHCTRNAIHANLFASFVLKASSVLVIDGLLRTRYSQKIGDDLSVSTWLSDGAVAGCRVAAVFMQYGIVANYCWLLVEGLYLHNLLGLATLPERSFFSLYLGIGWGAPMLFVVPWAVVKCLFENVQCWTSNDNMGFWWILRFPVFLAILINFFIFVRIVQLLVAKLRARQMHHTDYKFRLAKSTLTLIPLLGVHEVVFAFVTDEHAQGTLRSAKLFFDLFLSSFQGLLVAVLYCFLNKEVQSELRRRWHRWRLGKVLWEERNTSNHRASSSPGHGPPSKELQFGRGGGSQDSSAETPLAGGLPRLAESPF

## CC[C@H](C)[C@H](NC(=O)[C@H](CCCN)NC(=O)[C@H](CC(=O)O)NC(=O)[C@H](CC(C)C)NC(=O)[C@](C)(CC(C)C)NC(=O)[C@@H](NC(=O)C(C)(C)NC(=O)[C@H](Cc1ccncc1)NC(=O)[C@H](CC(=O)O)NC(=O)[C@H](CO)NC(=O)[C@@H](NC(=O)[C@](C)(Cc1ccccc1F)NC(=O)[C@@H](NC(=O)CNC(=O)[C@H](CCC(=O)O)NC(=O)C(C)(C)NC(=O)[C@@H](N)Cc1ccc(O)cc1)[C@@H](C)O)[C@@H](C)O)[C@@H](C)CC)C(=O)N[C@@H](C)C(=O)N[C@@H](CCC(N)=O)C(=O)NC(C)(C)C(=O)N[C@@H](CCCCNC(=O)COCCOCCNC(=O)COCCOCCNC(=O)CC[C@H](NC(=O)CCCCCCCCCCCCC(=O)O)C(=O)O)C(=O)N[C@@H](Cc1ccccc1)C(=O)N[C@H](C(=O)N[C@H](CCC(=O)O)C(=O)N[C@@](C)(Cc1ccc(O)cc1)C(=O)N[C@@H](CC(C)C)C(=O)N[C@H](C(=O)N[C@@H](CCCCNC(=O)COCCOCCNC(=O)COCCOCCNC(=O)CC[C@H](NC(=O)CCCCCCCCCCCCC(=O)O)C(=O)O)C(=O)NCC(=O)NCC(=O)N1CCC[C@H]1C(=O)N[C@@H](CO)C(=O)N[C@@H](CO)C(=O)NCC(=O)N[C@@H](C)C(=O)N1CCC[C@H]1C(=O)N1CCC[C@H]1C(=O)N1CCC[C@H]1C(=O)N[C@@H](CO)C(N)=O)[C@@H](C)CC)[C@@H](C)CC [Example 220]
hGCGR; 0.1% bovine casein and 1.0% human serum albumin, 37° C., geometric mean, read-out: hGCGR EC50, nM (SEM, n)
  EC50: > 9950 nM
hGCGR; cAMP, incubated at 37° C., 0.1% bovine casein (no human serum albumin), geometric mean, read-out: hGCGR EC50, nM (SEM, n)
  EC50: > 9950 nM
hGIPR; 0.1% bovine casein and 1.0% human serum albumin, 37° C., read-out: hGIPR EC50, nM (SEM, n)
  EC50: 11.6 nM
hGIPR; HEK293, 0.1% bovine casein and 1.0% human serum albumin, 37° C., percent of maximal response to GIP(1-42)NH2, read-out: hGIPR Emax, % ± SEM
  Emax: 83.5%
hGIPR; HEK293, percent of maximal response to GIP(1-42)NH2, 37° C., 0.1% bovine casein, arithmetic mean, read-out: hGIPR Emax, % ± SEM
  Emax: 91.6%
hGIPR; cAMP, incubated at 37° C., 0.1% bovine casein (no human serum albumin), read-out: hGIPR EC50, nM (SEM, n)
  EC50: 0.0237 nM
hGLP-1R; 0.1% bovine casein and 1.0% human serum albumin, 37° C., read-out: hGLP-1R EC50, nM (SEM, n)
  EC50: 150 nM
hGLP-1R; HEK293, 0.1% bovine casein and 1.0% human serum albumin, 37° C., percent of maximal response to GLP-1(7-36)NH2, read-out: hGLP-1R Emax, % ± SEM
  Emax: 110%
hGLP-1R; HEK293, percent of maximal response to GLP-1(7-36)NH2, 37° C., 0.1% bovine casein, arithmetic mean, read-out: hGLP-1R Emax, % ± SEM
  Emax: 87.6%
hGLP-1R; cAMP, incubated at 37° C., 0.1% bovine casein (no human serum albumin), read-out: hGLP-1R EC50, nM (SEM, n)
  EC50: 0.535 nM

## CC[C@H](C)[C@H](NC(=O)[C@H](CC(C)C)NC(=O)[C@](C)(Cc1ccccc1)NC(=O)[C@H](CCCCNC(=O)COCCOCCNC(=O)COCCOCCNC(=O)CC[C@H](NC(=O)CCCCCCCCCCCCC(=O)O)C(=O)O)NC(=O)[C@@H](NC(=O)[C@](C)(Cc1ccccc1)NC(=O)[C@H](CCC(=O)O)NC(=O)C(C)(C)NC(=O)[C@H](CCC(N)=O)NC(=O)[C@H](C)NC(=O)[C@H](CCCCNC(=O)COCCOCCNC(=O)COCCOCCNC(=O)CC[C@H](NC(=O)CCCCCCCCCCCCC(=O)O)C(=O)O)NC(=O)[C@H](CCCN)NC(=O)[C@H](CC(=O)O)NC(=O)[C@H](CC(C)C)NC(=O)[C@](C)(CC(C)C)NC(=O)[C@@H](NC(=O)C(C)(C)NC(=O)[C@@H](NC(=O)[C@H](CC(=O)O)NC(=O)[C@H](CO)NC(=O)[C@@H](NC(=O)[C@](C)(Cc1ccccc1F)NC(=O)[C@@H](NC(=O)CNC(=O)[C@H](CCC(=O)O)NC(=O)C(C)(C)NC(=O)[C@@H](N)Cc1ccc(O)cc1)[C@@H](C)O)[C@@H](C)O)C(C)C)[C@@H](C)CC)[C@@H](C)CC)C(=O)N[C@@H](CCC(=O)O)C(=O)NCC(=O)NCC(=O)N1CCC[C@H]1C(=O)N[C@@H](CO)C(=O)N[C@@H](CO)C(=O)NCC(=O)N[C@@H](C)C(=O)N1CCC[C@H]1C(=O)N1CCC[C@H]1C(=O)N1CCC[C@H]1C(=O)N[C@@H](CO)C(N)=O [Example 123]
hGCGR; [1]
  EC50: > 9950 nM
hGIPR; [2]
  Emax: 94.9%
hGLP-1R; HEK293, read-out: hGLP-1R Emax, % ± SEM, percent of maximal response to GLP-1(7-36)NH2, 37° C., 0.1% bovine casein, arithmetic mean
  Emax: 96.3%
hGLP-1R; hGLP-1R EC50, nM (SEM, n), cAMP, incubated at 37° C., 0.1% bovine casein (no human serum albumin)
  EC50: 0.508 nM

## CC[C@H](C)[C@H](NC(=O)[C@H](CCCN)NC(=O)[C@H](CC(=O)O)NC(=O)[C@H](CC(C)C)NC(=O)[C@](C)(CC(C)C)NC(=O)[C@@H](NC(=O)[C@H](CO)NC(=O)[C@H](Cc1ccncc1)NC(=O)[C@H](CC(=O)O)NC(=O)[C@H](CO)NC(=O)[C@@H](NC(=O)[C@](C)(Cc1ccccc1F)NC(=O)[C@@H](NC(=O)CNC(=O)[C@H](CCC(=O)O)NC(=O)C(C)(C)NC(=O)[C@@H](N)Cc1ccc(O)cc1)[C@@H](C)O)[C@@H](C)O)[C@@H](C)CC)C(=O)N[C@@H](C)C(=O)N[C@@H](CCC(N)=O)C(=O)NC(C)(C)C(=O)N[C@@H](CCCCNC(=O)COCCOCCNC(=O)COCCOCCNC(=O)CC[C@H](NC(=O)CCCCCCCCCCCCC(=O)O)C(=O)O)C(=O)N[C@@H](Cc1ccccc1)C(=O)N[C@H](C(=O)N[C@@H](CCCCNC(=O)COCCOCCNC(=O)COCCOCCNC(=O)CC[C@H](NC(=O)CCCCCCCCCCCCC(=O)O)C(=O)O)C(=O)N[C@@](C)(Cc1ccc(O)cc1)C(=O)N[C@@H](CC(C)C)C(=O)N[C@H](C(=O)N[C@@H](CCC(=O)O)C(=O)NCC(=O)NCC(=O)N1CCC[C@H]1C(=O)N[C@@H](CO)C(=O)N[C@@H](CO)C(=O)NCC(=O)N[C@@H](C)C(=O)N1CCC[C@H]1C(=O)N1CCC[C@H]1C(=O)N1CCC[C@H]1C(=O)N[C@@H](CO)C(N)=O)[C@@H](C)CC)[C@@H](C)CC [Example 69]
hGCGR; hGCGR EC50, nM (SEM, n), 0.1% bovine casein and 1.0% human serum albumin, 37° C., geometric mean
  EC50: > 9950 nM
hGCGR; [1]
  EC50: > 9950 nM
hGIPR; HEK293, read-out: hGIPR Emax, % ± SEM, 0.1% bovine casein and 1.0% human serum albumin, 37° C., percent of maximal response to GIP(1-42)NH2
  Emax: 86.8%
hGIPR; [2]
  Emax: 99 ± 2.43%
hGIPR; hGIPR EC50, nM (SEM, n), 0.1% bovine casein and 1.0% human serum albumin, 37° C.
  EC50: 2.32 nM
hGIPR; hGIPR EC50, nM (SEM, n), cAMP, incubated at 37° C., 0.1% bovine casein (no human serum albumin)
  EC50: 0.0265 nM
hGLP-1R; hGLP-1R EC50, nM (SEM, n), 0.1% bovine casein and 1.0% human serum albumin, 37° C.
  EC50: 18.9 nM

## CC[C@H](C)[C@H](NC(=O)[C@H](CC(C)C)NC(=O)[C@](C)(Cc1ccc(O)cc1)NC(=O)[C@@H](CCC(=O)O)NC(=O)[C@@H](NC(=O)[C@H](Cc1ccccc1)NC(=O)[C@H](CCCCNC(=O)COCCOCCNC(=O)COCCOCCNC(=O)CC[C@H](NC(=O)CCCCCCCCCCCCC(=O)O)C(=O)O)NC(=O)C(C)(C)NC(=O)[C@H](CCC(N)=O)NC(=O)[C@H](C)NC(=O)[C@H](CCCCNC(=O)COCCOCCNC(=O)COCCOCCNC(=O)CC[C@H](NC(=O)CCCCCCCCCCCCC(=O)O)C(=O)O)NC(=O)[C@H](CCCN)NC(=O)[C@H](CC(=O)O)NC(=O)[C@H](CC(C)C)NC(=O)[C@](C)(CC(C)C)NC(=O)[C@@H](NC(=O)C(C)(C)NC(=O)[C@H](Cc1ccncc1)NC(=O)[C@H](CC(=O)O)NC(=O)[C@H](CO)NC(=O)[C@@H](NC(=O)[C@](C)(Cc1ccccc1F)NC(=O)[C@@H](NC(=O)CNC(=O)[C@H](CCC(=O)O)NC(=O)C(C)(C)NC(=O)[C@@H](N)Cc1ccc(O)cc1)[C@@H](C)O)[C@@H](C)O)[C@@H](C)CC)[C@@H](C)CC)C(=O)N[C@@H](CCCN)C(=O)NCC(=O)NCC(=O)N1CCC[C@H]1C(=O)N[C@@H](CO)C(=O)N[C@@H](CO)C(=O)NCC(=O)N[C@@H](C)C(=O)N1CCC[C@H]1C(=O)N1CCC[C@H]1C(=O)N1CCC[C@H]1C(=O)N[C@@H](CO)C(N)=O [Example 406]
hGCGR; cAMP, 37° C., 0.1% bovine casein (no human serum albumin), geometric mean, read-out: hGCGR EC50, nM (SEM, n)
  EC50: > 9950 nM
hGCGR; cAMP, 37° C., 0.1% bovine casein and 1.0% human serum albumin, geometric mean (SEM, n), read-out: hGCGR EC50, nM (SEM, n)
  EC50: > 9950 nM
hGIPR; HEK293, cAMP, 37° C., 0.1% bovine casein and 1.0% human serum albumin, percent of maximal response to GIP(1-42)NH2, read-out: hGIPR Emax, % ± SEM
  Emax: 87.3%
hGIPR; cAMP, 37° C., 0.1% bovine casein (no human serum albumin), read-out: hGIPR EC50, nM (SEM, n)
  EC50: 0.00896 nM
hGLP-1R; HEK293, cAMP, 37° C., 0.1% bovine casein and 1.0% human serum albumin, percent of maximal response to GLP-1(7-36)NH2, read-out: hGLP-1R Emax, % ± SEM
  Emax: 96%
hGLP-1R; HEK293, cAMP, 37° C., 0.1% bovine casein, percent of maximal response to GLP-1(7-36)NH2, arithmetic mean, read-out: hGLP-1R Emax, % ± SEM
  Emax: 98.5%
hGLP-1R; cAMP, 37° C., 0.1% bovine casein (no human serum albumin), read-out: hGLP-1R EC50, nM (SEM, n)
  EC50: 0.351 nM
